Data on 11 molecules can be found in paper PMC7555276, “Using Ex Vivo Porcine Jejunum to Identify Membrane Transporter Substrates: A Screening Tool for Early—Stage Drug Development” (Biomedicines, 2020).

One data set relates to rat intestine. The settings on record: absence of inhibitor; cited from earlier work.
The next data set deals with ex vivo porcine jejunum. In words: Ussing chamber permeation across ex vivo porcine jejunum. The settings on record: for QPERM (+INH) / QDEP (+INH): presence of the corresponding transporter inhibitor (as E19); for change of Papp,pig in the presence of the corresponding inhibitor / change of QDEP in the presence of the corresponding inhibitor: statistical comparison, α = 0.05, inhibitors as E19; for Papp,pig fold lower than Papp,human: vs reported ex vivo human intestine. Type of data set: in vitro ADME, pig. The text has this: (§1) Fresh jejunum from female, 6 month-old Swiss noble pigs was harvested immediately after slaughter (Abattoir de […], Switzerland and Abattoir de Loëx; Bernex, Switzerland). […] Briefly, the intestine was opened along the mesenteric border and carefully rinsed with ice-cold KBR. […] A six Ussing chamber system was used for the intestinal transport experiments (Physiologic Instruments; San Diego, CA, USA). The Ussing chambers were set up on a heating block connected to a VCC MC6 MultiChannel voltage-current clamp via six input modules, containing integral dummy membranes. A temperature of 38 °C (porcine body temperature) was maintained using a circulating water bath (ED-5, Julabo GmbH, Seelbach, Germany). The Ussing chamber system was set up following the protocol of […] et al. […] In a first step, the acceptor and donor compartments of the Ussing chamber were filled with preheated KBR, and any voltage difference between the electrodes and the electrical resistance due to the buffer solution was eliminated. […] The choice of all substrates and inhibitors was based on the University of California, San Francisco-Food and Drug Administration (UCSF-FDA) TransPortal. The substrates tested, their physicochemical properties and the inhibitors used are described in Table 1. […] The integrity of the intestinal tissue was monitored throughout the experiment by measurement of the transepithelial resistance (TEER). […] At the end of the experiment, samples were taken from the acceptor and the donor compartment. The intestinal tissue was cut into little pieces and extracted for 6 h at room temperature in the mobile phase used for the UHPLC-MS/MS analysis (see Supplementary Information). […] Mass spectrometry was performed in multiple reaction monitoring (MRM) mode. All details of the analytical methods used for each of the molecules tested can be found in the Supplementary Information.

Assay in data set [1]: as above
The class given is in vitro ADME, pig. The note with it: female, Swiss noble, pig.
Description: as §1

Details of data set [2]: method as in earlier work. The note with it: cited from earlier work.
Another data set can be described thus: Solubility in KBR buffer. The settings on record: aqueous buffer, Krebs-bicarbonate ringer buffer pH 7.4. The class given is physicochemical.
The next data set concerns human intestine. On the set-up: method as in PMID 23103351, PMID 21416475. The settings on record: absence of inhibitor; cited from earlier work.
The test system of a further data set is P-gp. The settings on record: substrate of P-gp, cited from earlier work.
For a further data set, the system named is BCRP. The settings on record: cited from earlier work.
A further data set relates to MRP2. The settings on record: cited from earlier work.
The subject of another data set is PEPT1. On the set-up: method as in PMID 18824524. The note with it: inhibitor of PEPT1; cited from earlier work.
Data set [3] concerns porcine intestine (ileum, jejunum). Set-up: method as in PMID 30901927. The settings on record: porcine ileum and jejunum; cited from earlier work.
The subject of another data set is OCT1. The settings on record: substrate of OCT1; cited from earlier work.
Another data set has as its system OATP2B1. The note with it: cited from earlier work.
Where [4] appears, read: drug in acceptor compartment at t = 2 h, absence of inhibitor.
Setting [5] is: drug in acceptor compartment at t = 2 h.
Where [6] appears, read: drug retained in intestinal membrane at t = 2 h, absence of inhibitor.
[7] abbreviates: drug retained in intestinal membrane at t = 2 h.
[8] abbreviates: pH 7.4, absence of inhibitor, substrate 100 µM (digoxin 50 µM), 38 °C, KBR, read-out: Papp,pig (−INH).
[9] abbreviates: Krebs-bicarbonate ringer (KBR) buffer.
Where [10] appears, read: female, Swiss noble, pig, 2 h, pH 7.4.

Converted amounts (≈) assume the structure as drawn. Where two headings read alike, the source gives them in different places.

For orientation: Papp means the rate of passage across a membrane or cell layer, normalised by area and donor concentration. Broadly, the log P is the decadic logarithm of the partition coefficient of the neutral form, usually between octanol and water. The term solubility denotes the concentration that dissolves in the medium under given conditions. Turning to `CC1=C(C(=O)O)N2C(=O)[C@@H](NC(=O)[C@H](N)c3ccc(O)cc3)[C@H]2SC1` [Cefadroxil], in the data set on rat intestine, the “Papp,rat (−INH)” value is 4.99 ± 0.50 [70] 10^−6 cm/s. The “Papp,pig fold lower than Papp,rat” value with ex vivo porcine jejunum (corresponding segment of the intestine) was ~ 1.8 fold. Also, the “QPERM (−INH)” value in the data set on ex vivo porcine jejunum (setting [4]) was 0.50 ± 0.18 (4) %. Moreover, the “QPERM (+INH)” value in the data set on ex vivo porcine jejunum (setting [5]) is recorded as 0.31 ± 0.12 (6) %. For the same molecule, the “QDEP (−INH)” value with ex vivo porcine jejunum (setting [6]) turned out to be 1.31 ± 0.40%. For the same molecule, the “QDEP (+INH)” value in the data set with ex vivo porcine jejunum (setting [7]) stood at 1.47 ± 0.25%. In addition, the “change of Papp,pig in the presence of the corresponding inhibitor” value in the data set with ex vivo porcine jejunum is “statistically significant decrease”. Moreover, the Papp at 120 min in [1] (setting [8]) amounted to 2.82 ± 0.2 ×10⁻⁶ cm/s. Moreover, in [2], the “log P” value is on record as −0.4. The molecule further registered a solubility in “Solubility in KBR buffer” (setting [9]) of 45000 ± 1100 µg/mL (≈ 124 mM).
A word on the Km: it is the concentration of substrate that gives half-maximal velocity. Regarding `C[C@H]1O[C@@H](O[C@H]2[C@@H](O)C[C@H](O[C@H]3[C@@H](O)C[C@H](O[C@H]4CC[C@@]5(C)[C@H](CC[C@@H]6[C@@H]5C[C@@H](O)[C@]5(C)[C@@H](C7=CC(=O)OC7)CC[C@]65O)C4)O[C@@H]3C)O[C@@H]2C)C[C@H](O)[C@@H]1O` [Digoxin], the “Papp,human (−INH)” value with human intestine is 1.44 ± 0.72 [30] 10^−6 cm/s. In the data set with P-gp (ref 58), the Km is 73 µM. Further, the Km in the data set with P-gp (ref 95) was 0.73 µM. In the data set with rat intestine, the “Papp,rat (−INH)” value was 6.4 ± 1.9 [14] 10^−6 cm/s. Moreover, in the data set with ex vivo porcine jejunum (setting [10]), the “QDEP (−INH)” value was determined as 0.62 ± 0.17% and the “QPERM (−INH)” value is on record as 0.21 ± 0.12 (4) %. Besides, in the data set on ex vivo porcine jejunum, the “change of Papp,pig in the presence of the corresponding inhibitor” value was “significantly increased”. Moreover, in data set [1] (pH 7.4, Papp,pig (−INH)), the Papp at 120 min came to 0.38 ± 0.23 ×10⁻⁶ cm/s. Also, in the data set “Solubility in KBR buffer”, the concentration in solution (solubility) was 40 ± 10 µg/mL (≈ 0.0512 mM).
For orientation: Ki means a measure of affinity in units of concentration, obtained from inhibition or displacement. In the case of `CC(C)n1c(/C=C/C(O)CC(O)CC(=O)O)c(-c2ccc(F)cc2)c2ccccc21` (stereo not drawn) [Fluvastatin], the Ki with BCRP (inhibitor of BCRP) was 5.43 µM.
As a reminder, the IC50 is the concentration that inhibits the measured activity by half. With `COc1ccc2c(c1)c(CC(=O)O)c(C)n2C(=O)c1ccc(Cl)cc1` [Indomethacin], the IC50 in the data set with MRP2 (inhibitor of MRP2) was 0.06 µM.
Take `CCCCc1nc(Cl)c(CO)n1Cc1ccc(-c2ccccc2-c2nn[nH]n2)cc1` [Losartan]: in the data set on PEPT1, the IC50 is 52 µM and the Ki is 24 µM.
Consider `CNC(=C[N+](=O)[O-])NCCSCc1ccc(CN(C)C)o1` [Ranitidine], for which, in the data set on human intestine, the “Papp,human (−INH)” value was 5.50 [72] 10^−6 cm/s. Besides, the Michaelis constant (Km) in the data set on P-gp (ref 93) was 270 µM. Further, the “Papp,rat (−INH)” value with rat intestine is 4.00 [72] 10^−6 cm/s. For the same molecule, the “effect of P-gp inhibition on Papp,pig” value in data set [3] is recorded as “significant increase of Papp,pig in the ileum, but not in the jejunum”. In addition, in the data set on ex vivo porcine jejunum (setting [4]), the “QPERM (−INH)” value was 0.62 ± 0.17 (12) %. Moreover, the “QPERM (+INH)” value with ex vivo porcine jejunum (setting [5]) is 0.21 ± 0.03 (5) %. Moreover, the “QDEP (−INH)” value in the data set on ex vivo porcine jejunum (setting [6]) was determined as 1.11 ± 0.46%. Further, the “QDEP (+INH)” value with ex vivo porcine jejunum (setting [7]) came to 0.43 ± 0.12%. Besides, in the data set with ex vivo porcine jejunum, the “change of Papp,pig in the presence of the corresponding inhibitor” value is given as “significant decrease” and the “change of QDEP in the presence of the corresponding inhibitor” value was “significant decrease”. Also, the Papp at 120 min in data set [1] (setting [8]) came to 5.07 ± 0.83 ×10⁻⁶ cm/s. Besides, the concentration in solution in “Solubility in KBR buffer” (setting [9]) (solubility) came to 19600 ± 2780 µg/mL (≈ 62.5 mM). Also, the Km in the data set with OCT1 was 70 µM.
In the case of `CN(CCOc1ccc(CC2SC(=O)NC2=O)cc1)c1ccccn1` (stereo not drawn) [Rosiglitazone], the IC50 with OATP2B1 (inhibitor of OATP2B1) is 5.2 µM.
On to `CC(C)c1nc(N(C)S(C)(=O)=O)nc(-c2ccc(F)cc2)c1/C=C/[C@@H](O)C[C@@H](O)CC(=O)O` [Rosuvastatin], for which the “Papp,human (−INH)” value with human intestine is 6.95 ± 1.50 [30] 10^−6 cm/s. Moreover, in the data set on ex vivo porcine jejunum (setting [4]), the “QPERM (−INH)” value was 0.17 ± 0.09 (7) %. Besides, the “QPERM (+INH)” value with ex vivo porcine jejunum (setting [5]) is 0.29 ± 0.16 (6) %. Moreover, in the data set on ex vivo porcine jejunum (setting [6]), the “QDEP (−INH)” value was found to be 3.10 ± 1.46%. In addition, the “QDEP (+INH)” value in the data set with ex vivo porcine jejunum (setting [7]) came to 1.30 ± 0.14%. In the data set with ex vivo porcine jejunum, the “change of Papp,pig in the presence of the corresponding inhibitor” value is given as “significantly increased”, the “change of QDEP in the presence of the corresponding inhibitor” value is “significantly decreased” and the “Papp,pig fold lower than Papp,human” value was ~ 9 fold. In [1] (setting [8]), the Papp at 120 min turned out to be 0.91 ± 0.64 ×10⁻⁶ cm/s. The “log P” value in [2] is 0.13. In addition, the solubility in the data set “Solubility in KBR buffer” (setting [9]) worked out at 420 ± 160 µg/mL (≈ 0.872 mM). In the data set with OATP2B1 (substrate of OATP2B1), the Km was 2.4 µM.
On to `O=C(O)c1cc(/N=N/c2ccc(S(=O)(=O)Nc3ccccn3)cc2)ccc1O` [Sulfasalazine], for which the Km in the data set on BCRP (substrate of BCRP) was 0.7 µM. Moreover, in the data set with human intestine, the “Papp,human (−INH)” value was 0.09 ± 0.06 [30] 10^−6 cm/s. Further, the “Papp,rat (−INH)” value with rat intestine is 2.76 ± 0.19 [73] 10^−6 cm/s. For the same molecule, the “fold increase of Papp,pig in the presence of the inhibitor” value in the data set on ex vivo porcine jejunum (digoxin+verapamil, sulfasalazine+fluvastatin) worked out at 100 fold. Besides, the “QPERM (+INH)” value in the data set on ex vivo porcine jejunum (setting [5]) is 0.12 ± 0.07 (9) %. Besides, in the data set on ex vivo porcine jejunum (setting [6]), the “QDEP (−INH)” value came out at 3.23 ± 0.56%. Moreover, the “QDEP (+INH)” value with ex vivo porcine jejunum (setting [7]) is 2.47 ± 1.24%. Besides, the “Papp,pig fold lower than Papp,human” value in the data set with ex vivo porcine jejunum is ~ 10 fold. In data set [1] (setting [8]), the Papp at 120 min was 0.006 ± 0.004 ×10⁻⁶ cm/s. In data set [2], the “log P” value was 0.4. Moreover, the concentration in solution in the data set “Solubility in KBR buffer” (setting [9]) (solubility) came to 3310 ± 140 µg/mL (≈ 8.31 mM).
Take `CCCCC(=O)N(Cc1ccc(-c2ccccc2-c2nnn[nH]2)cc1)[C@H](C(=O)O)C(C)C` [Valsartan]: the Km in the data set on MRP2 (substrate of MRP2) was 30.4 µM. For the same molecule, in the data set with ex vivo porcine jejunum (setting [4]), the “QPERM (−INH)” value is recorded as 0.17 ± 0.02 (4) %. Moreover, the “QPERM (+INH)” value in the data set on ex vivo porcine jejunum (setting [5]) is recorded as 0.24 ± 0.10 (4) %. In addition, the “QDEP (−INH)” value with ex vivo porcine jejunum (setting [6]) is 0.44 ± 0.02%. Moreover, in the data set with ex vivo porcine jejunum (setting [7]), the “QDEP (+INH)” value was 0.57 ± 0.07%. For the same molecule, in the data set on ex vivo porcine jejunum, the “change of Papp,pig in the presence of the corresponding inhibitor” value is listed as “No significant difference” and the “change of QDEP in the presence of the corresponding inhibitor” value is “significantly higher”. The Papp at 120 min in data set [1] (setting [8]) worked out at 1.2 ± 0.1 ×10⁻⁶ cm/s.
For the molecule `CN/C(=N/CCSCc1nc[nH]c1C)NC#N` [cimetidine], the “effect of P-gp inhibition on Papp,pig” value in [3] is on record as “significant increase of Papp,pig in the ileum, but not in the jejunum”.
